Assay results from ChEMBL document CHEMBL1134446, “Polyamine analogue antidiarrheals: a structure-activity study” (J Med Chem, 2001).
Values joined by “and” are separate entries in the source; they are usually repeats but may differ in a detail not shown here. Identical values can stand only once.

Columns and labels:
Canis familiaris [1] = test: Spermine Distribution in kidney was determined after DESPM dosing of 6.0 mg/kg/day for 4.5 days in dog(cu dose-52.4) and sacrificed at 75 days PLD(cu dose-27 mg/kg); format: ADME, organism-based, Canis lupus familiaris; settings: in vivo, 1800 h
Canis familiaris [2] = test: putrescine Distribution in liver was determined after DESPM dosing of 4 mg/kg/day for 13 days in dog(cu dose-52.4) and sacrificed at 10 days PLD(cu dose-52 mg/kg); format: ADME, organism-based, Canis lupus familiaris; settings: in vivo, 240 h
Canis familiaris [3] = test: putrescine Distribution in liver was determined after DESPM dosing of 4 mg/kg/day for 13 days in dog(cu dose-52.4) and sacrificed at 75 days PLD(cu dose-52 mg/kg); format: ADME, organism-based, Canis lupus familiaris; settings: in vivo, 1800 h
Canis familiaris [4] = test: putrescine Distribution in liver was determined after DESPM dosing of 8.0 mg/kg/day for 4.5 days in dog(cu dose-52.4) and sacrificed at 75 days PLD(cu dose-36 mg/kg); format: ADME, organism-based, Canis lupus familiaris; settings: in vivo, 1800 h
Canis familiaris [5] = test: Spermidine Distribution in kidney was determined after DESPM dosing of 1.87 mg/kg/day for 28 days in dog(cu dose-52.4) and sacrificed at 75 days PLD(cu dose-52.4 mg/kg); format: ADME, organism-based, Canis lupus familiaris; settings: in vivo, 1800 h
Canis familiaris [6] = test: Spermidine Distribution in kidney was determined after DESPM dosing of 4 mg/kg/day for 13 days in dog(cu dose-52.4) and sacrificed at 10 days PLD(cu dose-52 mg/kg); format: ADME, organism-based, Canis lupus familiaris; settings: in vivo, 240 h
Canis familiaris [7] = test: Spermidine Distribution in liver was determined after DESPM dosing of 4 mg/kg/day for 13 days in dog(cu dose-52.4) and sacrificed at 75 days PLD(cu dose-52 mg/kg); format: ADME, organism-based, Canis lupus familiaris; settings: in vivo, 1800 h
Canis familiaris [8] = test: Spermidine Distribution in liver was determined after DESPM dosing of 8.0 mg/kg/day for 4.5 days in dog(cu dose-52.4) and sacrificed at 10 days PLD(cu dose-36 mg/kg); format: ADME, organism-based, Canis lupus familiaris; settings: in vivo, 240 h
Canis familiaris [9] = test: Spermidine Distribution in liver was determined after DESPM dosing of 8.0 mg/kg/day for 4.5 days in dog(cu dose-52.4) and sacrificed at 75 days PLD(cu dose-36 mg/kg); format: ADME, organism-based, Canis lupus familiaris; settings: in vivo, 1800 h
Canis familiaris [10] = test: Spermidine Distribution in kidney was determined after DESPM dosing of 8.0 mg/kg/day for 4.5 days in dog(cu dose-52.4) and sacrificed at 75 days PLD(cu dose-36 mg/kg); format: ADME, organism-based, Canis lupus familiaris; settings: in vivo, 1800 h
Rattus norvegicus [11] = test: Stool output of rat over the 6-h collection period when a dose of 4.7 mg/kg (11.6 administered; format: functional
Canis familiaris [12] = test: MESPM/MEHSPH Distribution in kidney was determined after DESPM dosing of 6.0 mg/kg/day for 4.5 days in dog(cu dose-52.4) and sacrificed at 75 days PLD(cu dose-27 mg/kg); format: ADME, organism-based, Canis lupus familiaris; settings: in vivo, 1800 h
Canis familiaris [13] = test: MESPM/MEHSPH Distribution in kidney was determined after DESPM dosing of 8.0 mg/kg/day for 4.5 days in dog(cu dose-52.4) and sacrificed at 10 days PLD(cu dose-36 mg/kg); format: ADME, organism-based, Canis lupus familiaris; settings: in vivo, 240 h
Canis familiaris [14] = test: MESPM/MEHSPH Distribution in kidney was determined after DESPM dosing of 8.0 mg/kg/day for 4.5 days in dog(cu dose-52.4) and sacrificed at 75 days PLD(cu dose-36 mg/kg); format: ADME, organism-based, Canis lupus familiaris; settings: in vivo, 1800 h
Canis familiaris [15] = test: MESPM/MEHSPH Distribution in liver was determined after DESPM dosing of 6.0 mg/kg/day for 4.5 days in dog(cu dose-52.4) and sacrificed at 10 days PLD(cu dose-27 mg/kg); format: ADME, organism-based, Canis lupus familiaris; settings: in vivo, 240 h
Rattus norvegicus [16] = test: Weight loss of rat over the 6-h experimental period when a dose of 0 mg/kg (0 administered; format: functional
Rattus norvegicus [17] = test: Percent reduction was determined by using the ratio of mean of treated animal to that of control animal at a dose of 47 mg/kg; format: functional
Rattus norvegicus [18] = test: (§1) Percent reduction was determined by using the ratio of mean of treated animal to that of control animal at a dose of 94 mg/kg; format: functional
Rattus norvegicus [19] = test: as §1; format: functional; remark: listed apart in the source
Rattus norvegicus [20] = test: Stool output of rat over the 6-h collection period when a dose of 0 mg/kg (0 administered; format: functional
Canis familiaris [21] = test: putrescine Distribution in liver was determined after DEHSPM dosing of 2.0 mg/kg/day for 29 days in dog(cu dose-52.4) and sacrificed at 10 days PLD(cu dose-58 mg/kg); format: ADME, organism-based, Canis lupus familiaris; settings: in vivo, 240 h
Canis familiaris [22] = test: putrescine putrescine Distribution in kidney was determined after DEHSPM dosing of 2.0 mg/kg/day for 29 days in dog(cu dose-52.4) and sacrificed at 10 days PLD(cu dose-58 mg/kg); format: ADME, organism-based, Canis lupus familiaris; settings: in vivo, 240 h
Canis familiaris [23] = test: Distribution in kidney was determined after DESPM dosing of 8.0 mg/kg/day for 4.5 days in dog(cu dose-52.4) and sacrificed at 75 days PLD(cu dose-36 mg/kg); format: ADME, organism-based, Canis lupus familiaris; settings: in vivo, 1800 h
Canis familiaris [24] = test: Distribution in liver was determined after DESPM dosing of 1.87 mg/kg/day for 28 days in dog(cu dose-52.4) and sacrificed at 75 days PLD(cu dose-52.4 mg/kg); format: ADME, organism-based, Canis lupus familiaris; settings: in vivo, 1800 h
Canis familiaris [25] = test: Distribution in liver was determined after DESPM dosing of 6.0 mg/kg/day for 4.5 days in dog(cu dose-52.4) and sacrificed at 10 days PLD(cu dose-27 mg/kg); format: ADME, organism-based, Canis lupus familiaris; settings: in vivo, 240 h
Canis familiaris [26] = test: Distribution in liver was determined after DESPM dosing of 8.0 mg/kg/day for 4.5 days in dog(cu dose-52.4) and sacrificed at 75 days PLD(cu dose-36 mg/kg); format: ADME, organism-based, Canis lupus familiaris; settings: in vivo, 1800 h
Canis familiaris [27] = test: HSPM Distribution in kidney was determined after DEHSPM dosing of 2.0 mg/kg/day for 29 days in dog(cu dose-52.4) and sacrificed at 10 days PLD(cu dose-22 mg/kg); format: ADME, organism-based, Canis lupus familiaris; settings: in vivo, 240 h
Canis familiaris [28] = test: HSPM Distribution in liver was determined after DEHSPM dosing of 2.0 mg/kg/day for 29 days in dog(cu dose-52.4) and sacrificed at 10 days PLD(cu dose-22 mg/kg); format: ADME, organism-based, Canis lupus familiaris; settings: in vivo, 240 h
Canis familiaris [29] = test: HSPM Distribution in liver was determined after DEHSPM dosing of 2.0 mg/kg/day for 29 days in dog(cu dose-52.4) and sacrificed at 10 days PLD(cu dose-58 mg/kg); format: ADME, organism-based, Canis lupus familiaris; settings: in vivo, 240 h
Canis familiaris [30] = test: MESPM/MEHSPH Distribution in kidney was determined after DEHSPM dosing of 2.0 mg/kg/day for 29 days in dog(cu dose-52.4) and sacrificed at 10 days PLD(cu dose-22 mg/kg); format: ADME, organism-based, Canis lupus familiaris; settings: in vivo, 240 h
Canis familiaris [31] = test: Distribution in kidney was determined after DEHSPM dosing of 2.0 mg/kg/day for 29 days in dog(cu dose-52.4) and sacrificed at 10 days PLD(cu dose-22 mg/kg); format: ADME, organism-based, Canis lupus familiaris; settings: in vivo, 240 h
Canis familiaris [32] = test: Distribution in kidney was determined after DESPM dosing of 1.87 mg/kg/day for 28 days in dog(cu dose-52.4) and sacrificed at 10 days PLD(cu dose-52.4 mg/kg); format: ADME, organism-based, Canis lupus familiaris; settings: in vivo, 240 h
Canis familiaris [33] = test: Distribution in kidney was determined after DESPM dosing of 6.0 mg/kg/day for 4.5 days in dog(cu dose-52.4) and sacrificed at 75 days PLD(cu dose-27 mg/kg); format: ADME, organism-based, Canis lupus familiaris; settings: in vivo, 1800 h
Canis familiaris [34] = test: Spermine Distribution in liver was determined after DEHSPM dosing of 2.0 mg/kg/day for 29 days in dog(cu dose-52.4) and sacrificed at 10 days PLD(cu dose-58 mg/kg); format: ADME, organism-based, Canis lupus familiaris; settings: in vivo, 240 h

## CCNCCCNCCCCNCCCNCC [BIS(ETHYL)SPERMINE]
Canis familiaris [1]
  Wet weight of tissue: 584 nM/g
Canis familiaris [2]
  Wet weight of tissue: 82 nM/g
Canis familiaris [3]
  Wet weight of tissue: 62 nM/g
Canis familiaris [4]
  Wet weight of tissue: 56 nM/g
Canis familiaris [5]
  Wet weight of tissue: 87 nM/g
Canis familiaris [6]
  Wet weight of tissue: 82 nM/g
Canis familiaris [7]
  Wet weight of tissue: 264 nM/g
Canis familiaris [8]
  Wet weight of tissue: 187 nM/g
Canis familiaris [9]
  Wet weight of tissue: 221 nM/g
Canis familiaris [10]
  Wet weight of tissue: 80 nM/g
Rattus norvegicus [11]
  Stool output: <3 g (350g of rat weight)-1
Canis familiaris [12]
  Wet weight of tissue: 0 nM/g
Canis familiaris [13]
  Wet weight of tissue: 12 nM/g
Canis familiaris [14]
  Wet weight of tissue: 0 nM/g
Canis familiaris [15]
  Wet weight of tissue: 23 nM/g
Rattus norvegicus [16]
  Weight loss: 11.9 g
Rattus norvegicus [17]
  Reduction: 75% and 92%
Rattus norvegicus [18]
  Reduction: 100%
Rattus norvegicus [19]
  Reduction: 81%
Rattus norvegicus [20]
  Stool output: 7.5 g (350g of rat weight)-1

## CCNCCCCNCCCCNCCCCNCC [DIETHYLHOMOSPERMINE]
Canis familiaris [21]
  Wet weight of tissue: 19 nM/g
Canis familiaris [22]
  Wet weight of tissue: 5 nM/g
Canis familiaris [23]
  Wet weight of tissue: 0 nM/g
Canis familiaris [24]
  Wet weight of tissue: 0 nM/g
Canis familiaris [25]
  Wet weight of tissue: 30 nM/g
Canis familiaris [26]
  Wet weight of tissue: 0 nM/g
Canis familiaris [27]
  Wet weight of tissue: 43 nM/g
Canis familiaris [28]
  Wet weight of tissue: 668 nM/g
Canis familiaris [29]
  Wet weight of tissue: 751 nM/g
Canis familiaris [30]
  Wet weight of tissue: 3 nM/g
Canis familiaris [31]
  Wet weight of tissue: 0 nM/g
Canis familiaris [32]
  Wet weight of tissue: 50 nM/g
Canis familiaris [33]
  Wet weight of tissue: 0 nM/g
Canis familiaris [34]
  Wet weight of tissue: 108 nM/g
